According to ChEMBL document CHEMBL1201862, “PubChem BioAssay data set” (2004):
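Exposure lasted 48 hours, with cells grown in 96-well plates and compounds tested at five concentrations. Abbreviation: GI50, concentration required for 50% inhibition of growth.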 Activity calls are given as the source filed them. Cut-off read from the data, not from the text of the source: active = GI50 up to about 1.1 µM and inactive = higher.

Experiments:
Assay in all cases: NCI tumour cell line growth inhibition, 48 h
[1] = system: SNB-19
[2] = system: K562
[3] = system: OVCAR-5
[4] = system: MDA-MB-435
[5] = system: HCT-116
[6] = system: BT-549
[7] = system: CAKI-1
[8] = system: MDA-MB-231
[9] = system: TK-10
[10] = system: SW-620
[11] = system: U-251
[12] = system: NCI/ADR-RES
[13] = system: EKVX
[14] = system: SF-295
[15] = system: UACC-257
[16] = system: HOP-62
[17] = system: MDA-N
[18] = system: HCC 2998
[19] = system: SK-MEL-5
[20] = system: OVCAR-4
[21] = system: PC-3
[22] = system: HT-29
[23] = system: OVCAR-3
[24] = system: SN12C
[25] = system: SR
[26] = system: A549
[27] = system: SF-268
[28] = system: UACC-62
[29] = system: COLO 205
[30] = system: SF-539
[31] = system: MOLT-4
[32] = system: HCT-15
[33] = system: HL-60
[34] = system: M14
[35] = system: ACHN
[36] = system: MCF7
[37] = system: Hs-578T
[38] = system: 786-0
[39] = system: DU-145
[40] = system: RPMI-8226
[41] = system: LOX IMVI
[42] = system: KM12
[43] = system: RXF 393
[44] = system: UO-31
[45] = system: Malme-3M
[46] = system: NCI-H460
[47] = system: OVCAR-8
[48] = system: NCI-H522
[49] = system: NCI-H23
[50] = system: SK-MEL-28
[51] = system: IGROV-1
[52] = system: SK-OV-3
[53] = system: SK-MEL-2
[54] = system: A498
[55] = system: CCRF-CEM
[56] = system: NCI-H226
[57] = system: T47D
[58] = system: SNB-75

Question: Which GI50 [1] does the source give for `CCN(/C=C1/C(=O)C(c2ccccc2)N(c2ccccc2)C1=O)CC` (stereo not given) here?
Answer: > 10 µM (inactive)

Question: What about the GI50 [2] of the same molecule?
Answer: > 10 µM (inactive)

Question: What about the GI50 [3] of the same molecule?
Answer: > 10 µM (inactive)

Question: And the GI50 [4]?
Answer: > 10 µM (inactive)

Question: What about the GI50 [5] of the same molecule?
Answer: > 10 µM (inactive)

Question: What about the GI50 [6] of the same molecule?
Answer: > 10 µM (inactive)

Question: What about the GI50 [7] of the same molecule?
Answer: > 10 µM (inactive)

Question: What about the GI50 [8] of the same molecule?
Answer: > 10 µM (inactive)

Question: And the GI50 [9]?
Answer: > 10 µM (inactive)

Question: What about the GI50 [10] of the same molecule?
Answer: > 10 µM (inactive)

Question: What about the GI50 [11] of the same molecule?
Answer: > 10 µM (inactive)

Question: What about the GI50 [12] of the same molecule?
Answer: > 10 µM (inactive)

Question: And the GI50 [13]?
Answer: > 10 µM (inactive)

Question: And the GI50 [14]?
Answer: > 10 µM (inactive)

Question: And the GI50 [15]?
Answer: > 10 µM (inactive)

Question: What about the GI50 [16] of the same molecule?
Answer: > 10 µM (inactive)

Question: And the GI50 [17]?
Answer: > 10 µM (inactive)

Question: What about the GI50 [18] of the same molecule?
Answer: > 10 µM (inactive)

Question: What about the GI50 [19] of the same molecule?
Answer: > 10 µM (inactive)

Question: And the GI50 [20]?
Answer: > 10 µM (inactive)

Question: And the GI50 [21]?
Answer: > 10 µM (inactive)

Question: And the GI50 [22]?
Answer: > 10 µM (inactive)

Question: And the GI50 [23]?
Answer: > 10 µM (inactive)

Question: And the GI50 [24]?
Answer: > 10 µM (inactive)

Question: And the GI50 [25]?
Answer: > 10 µM (inactive)

Question: And the GI50 [26]?
Answer: > 10 µM (inactive)

Question: What about the GI50 [27] of the same molecule?
Answer: > 10 µM (inactive)

Question: And the GI50 [28]?
Answer: > 10 µM (inactive)

Question: And the GI50 [29]?
Answer: > 10 µM (inactive)

Question: What about the GI50 [30] of the same molecule?
Answer: > 10 µM (inactive)

Question: What about the GI50 [31] of the same molecule?
Answer: > 10 µM (inactive)

Question: What about the GI50 [32] of the same molecule?
Answer: > 10 µM

Question: What about the GI50 [33] of the same molecule?
Answer: > 10 µM (inactive)

Question: What about the GI50 [34] of the same molecule?
Answer: > 10 µM (inactive)

Question: And the GI50 [35]?
Answer: > 10 µM (inactive)

Question: What about the GI50 [36] of the same molecule?
Answer: > 10 µM (inactive)

Question: And the GI50 [37]?
Answer: > 10 µM (inactive)

Question: What about the GI50 [38] of the same molecule?
Answer: > 10 µM (inactive)

Question: And the GI50 [39]?
Answer: > 10 µM (inactive)

Question: What about the GI50 [40] of the same molecule?
Answer: > 10 µM (inactive)

Question: What about the GI50 [41] of the same molecule?
Answer: > 10 µM (inactive)

Question: And the GI50 [42]?
Answer: > 10 µM (inactive)

Question: And the GI50 [43]?
Answer: > 10 µM (inactive)

Question: And the GI50 [44]?
Answer: > 10 µM (inactive)

Question: And the GI50 [45]?
Answer: > 10 µM (inactive)

Question: What about the GI50 [46] of the same molecule?
Answer: > 10 µM (inactive)

Question: And the GI50 [47]?
Answer: > 10 µM (inactive)

Question: What about the GI50 [48] of the same molecule?
Answer: > 10 µM (inactive)

Question: And the GI50 [49]?
Answer: > 10 µM (inactive)

Question: What about the GI50 [50] of the same molecule?
Answer: > 10 µM (inactive)

Question: And the GI50 [51]?
Answer: > 10 µM (inactive)

Question: And the GI50 [52]?
Answer: > 10 µM (inactive)

Question: What about the GI50 [53] of the same molecule?
Answer: > 10 µM (inactive)

Question: And the GI50 [54]?
Answer: > 10 µM (inactive)

Question: And the GI50 [55]?
Answer: > 10 µM (inactive)

Question: What about the GI50 [56] of the same molecule?
Answer: > 10 µM (inactive)

Question: And the GI50 [57]?
Answer: > 10 µM (inactive)

Question: And the GI50 [58]?
Answer: 6.44 µM (inactive)

Question: Which results are given for `COc1cccc(/C=C2\SC(=S)N(/C=C3\C(=O)Oc4ccccc4C3=O)C2=O)c1O`?
Answer: GI50 [1]: 41.9 µM (inactive); GI50 [2]: 34.4 µM (inactive); GI50 [3]: > 100 µM (inactive); GI50 [4]: 24.7 µM (inactive); GI50 [5]: 56.9 µM (inactive); GI50 [6]: 20 µM (inactive); GI50 [7]: 81.1 µM (inactive); GI50 [8]: 33.2 µM (inactive); GI50 [10]: 44.1 µM (inactive); GI50 [11]: 31.5 µM (inactive); GI50 [12]: 41 µM (inactive); GI50 [13]: > 100 µM (inactive); GI50 [14]: 76.6 µM (inactive); GI50 [15]: 68.2 µM (inactive); GI50 [16]: 50.7 µM (inactive); GI50 [17]: 32.8 µM (inactive); GI50 [18]: 28.8 µM (inactive); GI50 [19]: 35.8 µM (inactive); GI50 [20]: 82.4 µM (inactive); GI50 [21]: 51.8 µM (inactive); GI50 [22]: 78.3 µM (inactive); GI50 [23]: 34.4 µM (inactive); GI50 [24]: 56.4 µM (inactive); GI50 [25]: 30.6 µM (inactive); GI50 [26]: 59.7 µM (inactive); GI50 [27]: 46.7 µM (inactive); GI50 [28]: 53 µM (inactive); GI50 [29]: 85.7 µM (inactive); GI50 [30]: 24.9 µM (inactive); GI50 [31]: 39.1 µM (inactive); GI50 [32]: 43.2 µM; GI50 [33]: 41.2 µM (inactive); GI50 [34]: 39.4 µM (inactive); GI50 [35]: 46 µM (inactive); GI50 [36]: 39.4 µM (inactive); GI50 [37]: 25.5 µM (inactive); GI50 [38]: 67.8 µM (inactive); GI50 [39]: 74.5 µM (inactive); GI50 [40]: 18.8 µM (inactive); GI50 [41]: 63.2 µM (inactive); GI50 [42]: 45.8 µM (inactive); GI50 [43]: 59.4 µM (inactive); GI50 [44]: 22.3 µM (inactive); GI50 [45]: > 100 µM (inactive); GI50 [46]: 48.1 µM (inactive); GI50 [47]: 80 µM (inactive); GI50 [48]: 33.3 µM (inactive); GI50 [49]: 45.2 µM (inactive); GI50 [50]: 40.4 µM (inactive); GI50 [51]: 59.2 µM (inactive); GI50 [52]: 49.2 µM (inactive); GI50 [53]: 45.7 µM (inactive); GI50 [54]: 11.9 µM (inactive); GI50 [55]: 38.7 µM (inactive); GI50 [56]: > 100 µM (inactive); GI50 [57]: 48.6 µM (inactive); GI50 [58]: 19.8 µM (inactive)
